One data set concerns HBV. Description: qPCR assay for in vitro testing of HBV (HBV DNA content in HepG2.2.15 cells). The data set is classed as cell-based. The conditions noted are these: Hepatitis B virus, 192 h, HBV DNA by qPCR, day 8, read-out: Concentration for 50% of maximal effect (EC50) of HBV. On the procedure: HBV DNA content in HepG2.2.15 cells was detected by a real time-qPCR assay, and the inhibitory action of the compound on HBV was evaluated by taking the EC50 value of the compound as an index.
2.1. cell lines: HepG2.2.15 cells
3.1. HepG2.2.15 cells (4×10^4 cells/well) were plated in a 96-well plate and cultured overnight at 37° C. and 5% CO2.
3.2. On the next day, the compound was diluted for a total of 8 concentrations, with 3-fold gradient dilutions. The compound at different concentrations was added into the culture wells in duplicate. The final concentration of DMSO in the culture medium was 1%. 1 μM GLS4 served as 100% inhibition control (WO2008154817A1 discloses the structure of GLS4 as follows:
DMSO at 1% served as 0% inhibition control.
3.3. On the fifth day, the original culture medium was replaced with a fresh culture medium containing the compound.
3.4. On the eighth day, the culture medium in the culture wells was collected, and the high-throughput DNA purification kit (Qiagen-51162) was used to extract DNA. For specific steps, refer to the product manual.
3.6. 15 μL of the reaction mixture was added into each well of the 96-well PCR plate, and then 10 μL of sample DNA or HBV DNA standard was added into each well.
3.7. Reaction conditions for PCR were as follows: heating at 95° C. for 10 min; then denaturating at 95° C. for 15 s and extending at 60° C. for 1 min for 40 cycles.
3.8.1. […]
Background: Real-time PCR tracks product formation cycle by cycle.

For a further data set, the target named is T1, CYP2C9 (Homo sapiens, UniProt P11712).
T1 construct: from tissue; host or cells: human liver microsomes
T1 sequence (P11712 whole entry): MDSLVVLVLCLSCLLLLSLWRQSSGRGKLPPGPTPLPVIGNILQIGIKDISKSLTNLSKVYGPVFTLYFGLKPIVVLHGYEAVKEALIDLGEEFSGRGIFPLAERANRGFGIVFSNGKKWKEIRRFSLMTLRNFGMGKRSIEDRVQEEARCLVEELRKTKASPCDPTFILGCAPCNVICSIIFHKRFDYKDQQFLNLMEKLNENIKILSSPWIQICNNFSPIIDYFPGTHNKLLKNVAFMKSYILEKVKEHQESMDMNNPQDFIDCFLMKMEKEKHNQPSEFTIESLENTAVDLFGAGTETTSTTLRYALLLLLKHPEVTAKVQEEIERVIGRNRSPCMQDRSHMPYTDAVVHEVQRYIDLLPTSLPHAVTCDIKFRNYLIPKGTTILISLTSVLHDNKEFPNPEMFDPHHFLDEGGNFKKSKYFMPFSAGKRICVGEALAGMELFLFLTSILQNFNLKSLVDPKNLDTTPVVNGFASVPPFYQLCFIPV
As to the kind of experiment: Inhibition of human liver microsomal cytochrome P450 isoenzyme CYP2C9. Conditions: human liver microsomes. The data set is classed as in vitro ADME. On the procedure: Objective: The inhibitory effect of the test compound on the activity of human liver microsomal cytochrome P450 isoenzymes (CYP1A2, CYP2C9, CYP2C19, CYP2D6 and CYP3A4) was determined. […]
A general note: Liver microsomes are a subcellular fraction often used to study metabolism.

A short description of data set [1]: Metabolic stability in liver microsomes of cynomolgus monkeys. The conditions noted are these: cynomolgus monkey. The data set is classed as in vitro ADME. On the procedure:
Objective: The metabolic stability of the tested compound of formula (I) in liver microsomes of rats, beagle dogs and cynomolgus monkeys was determined. […]

Consider `CC1(NC(=O)C(=O)c2c(Cl)c(C(=O)Nc3cc(F)c(F)c(F)c3)c3n2CCC3)CCC(CC(=O)O)CC1` (centres unmarked) [Compound of formula (I)], for which the EC50 with HBV was found to be 4 nM. In addition, at CYP2C9, the IC50 is > 50000 nM. The microsomal CLint at 1 μM in data set [1] (microsomes) is < 9.6 µL/min/mg. Besides, the intrinsic metabolic clearance (CLint scaled) at 1 μM in data set [1] (Cynomolgus monkeys liver microsomes) is < 13 mL/min/kg. Also, the half-life at 1 μM in data set [1] (Cynomolgus monkeys liver microsomes, 1 μM compound, 0.5 mg/mL) is > 2.42 h.

One may read the IC50 as the point on the concentration scale where inhibition reaches its midpoint. A low value points to greater potency in that assay. A word on the microsomal CLint: it is the capacity of the preparation to metabolise the compound, expressed as a volume cleared per time. The low end stands for slow turnover, the high end for rapid turnover. The CLint scaled is the rate of metabolic loss divided by the concentration. Low values mean greater metabolic stability, high ones faster metabolism. One may read the half-life as how long it takes for the measured level to halve. A lower half-life goes with rapid decline.

Values taken from US20230026869A1, “CRYSTAL FORM OF NUCLEOPROTEIN INHIBITOR AND USE THEREOF” (CHIA TAI TIANQING PHARMACEUTICAL GROUP CO., LTD., priority 2019, published 2023).
